According to article PMC10458203, “The Amoebicidal Activity of Diferrocenyl Derivatives: A Significant Dependence on the Electronic Environment” (Molecules, 2023):
Where “and” joins values, the source holds several entries; their conditions need not be identical. Identical values can stand only once. Like-named read-outs stand apart in the source and are kept apart here. Marks after values point to notes of the source that are not given here.

Assays:
[1] = set-up: method as in doi:10.1016/j.jorganchem.2017.05.002; details: cited from earlier work
[2] = RP-TLC, methanol/water 80:20; standard deviation in parentheses, three determinations
[3] = tested on: trophozoites of Entamoeba histolytica HM1:IMSS strain; assay: Amoebicidal (antiproliferative) activity on trophozoite cultures, viability by trypan blue / CFDA-propidium iodide; assay type: cell-based; details: for increase in the amoebicidal activity: compared with the parent compound 3a
Experimental: Trophozoites of the E. histolytica HM1:IMSS strain were axenically grown by placing 1 × 10^5 live trophozoites in tubes with 3 mL of supplemented TYI-S33 medium. Amoebic trophozoite viability exposed to 1000, 100, 10, 1, 0.1, and 0.01 μM of each experimental compound was determined at 24, 48, and 72 h with trypan blue vital marker and confirmed with the fluorescent dyes carboxyfluorescein diacetate (CFDA) and propidium iodide. Either 100 μL of Trypan blue 0.4% or 1 μL of 5 μM CFDA (Invitrogen Molecular Probes, Inc., Eugene, OR, USA) and 1 μL of 1.5 μM propidium iodide were added to samples of 100 μL containing around 1 × 10^4 treated trophozoites, mixed, and incubated at room temperature for 15 min. The final solutions were mixed and incubated at room temperature for 15 min to perform the counting with an Olympus BX51 fluorescence microscope. The IC50 values were calculated by a multivariable regression using the amoebic viability curves for the tree times evaluated on GraphPad Prism 10.0.

[4] = cited from earlier work
amoeba trophozoites = tested on: amoeba trophozoites; set-up: method as in PMID 27863300; details: cited from earlier work
[5] = Electrochemical measurements (voltammetry) of redox potentials in acetonitrile; assay type: physicochemical; details: TBATFB 0.1 M; for E(I) half-wave redox potential / E(II) half-wave redox potential: vs. Fc/Fc+
Experimental: Two oxidation (Ia, IIa) and two reduction (Ic, IIc) processes with half-wave potential values E(I) = −0.022 V and E(II) = 0.164 V were observed. The electronic communication between both Ferrocene units was evaluated using the ΔE(II–I) to calculate the comproportionation constant (Kcom). According to the Kcom value 1563, the mixed-valence compound is a Class II compound in the Robin–Day classification with slight electronic delocalization between the two redox centers. This slight communication between iron ions allows the identification of two independent and sequential redox processes. It confirms the absence of chemical or adsorption processes associated with redox transformation (Figure 1b). Similar results were found for compound 3e (Table 1). The relationship between redox potential values found for compounds 3a–e follows the equation EII(V) = 1.01EI(V) + 0.1897 (R^2 = 0.9894, F = 280.7, Figure 2a).
Individual diferrocenylvinyloxazolines 3a–e (Figure 6) were isolated using Al2O3 column chromatography (activity grade III, elution with hexane-ether 4:1). In the solid state, fine crystalline substances of orange color represent them. The E and Z […] could be separated by a chromatographic column. In this work, only Z-enantiomers were employed, as described in the compound characterization. The structures of compounds 3a–e were determined based on mass spectrometry, FT-IR, ^1H, and ^13C NMR spectroscopy, and elemental analysis. UV–vis spectra of 3a–e were acquired using acetonitrile solutions at different concentrations in a Genesis 30 Spectrophotometer (Thermo Scientific, Waltham, MA, USA) from 325 to 1100 nm. Electrochemical measurements for compounds 3c and 3e were performed using conditions reported previously. Briefly, acetonitrile solutions at different concentrations of the compound with tetrabutylammonium tetrafluoroborate (TBATFB) 0.1M as a supporting electrolyte, platinum disk as a working electrode, and Ag/AgNO3 as a reference in a potentiostat/galvanostat (EG&G PAR 273). The scan rate was 0.1 V/s, from open circuit potential to positive direction. Bubbling N2 deoxygenated the working solution before each measurement.

[6] = E. histolytica HM1:IMSS trophozoites, viability curves at 24, 48 and 72 h, read-out: IC50
[7] = logarithmic units of IC50 in µM

Molecule | E(I) redox potential ([1]; acetonitrile, vs. Fc/Fc+) | E(II) redox potential ([1]; acetonitrile, vs. Fc/Fc+) | E(I) redox potential [1] [mV] | E(II) redox potential [1] [mV] | logP [2] | IC50 [3, 6] [µM] | −log (1/IC50) [3, 7] | increase in the amoebicidal activity [3] | also measured
2-(Z-2,3-diferrocenylvinyl)-4,5-dihydrooxazole [Compound 3a] | 0.116 V and 0.116 ^a V | 0.305 V and 0.305 ^a V | 116 | 305 | 4.42 (0.2) | 1000 ± 46 | 3 | – | –
C(=C(/C1=NCCS1)[c-]1cccc1)/[c-]1cccc1.[Fe+2].[Fe+2].c1cc[cH-]c1.c1cc[cH-]c1 [2-(Z-1,2-diferrocenylvinyl)-4,5-dihydro-1,3-thiazole] | – | – | – | – | – | – | – | – | E(I) redox potential [4]: 0.251 V; E(II) redox potential [4]: 0.408 V
C(=C(/C1=NCCN1)[c-]1cccc1)/[c-]1cccc1.[Fe+2].[Fe+2].c1cc[cH-]c1.c1cc[cH-]c1 [2-(Z-1,2-diferrocenylvinyl)-imidazoline] | – | – | – | – | – | – | – | – | E(I) redox potential [4]: 0.250 V; E(II) redox potential [4]: 0.437 V
COc1cc2c(c(OC)c1OC)CCC1C2=Nc2ccccc2SC1[c-]1cccc1.[Fe+2].c1cc[cH-]c1 (centres unmarked) [(2,3,4-trimethoxy-5,6,6a,7-tetrahydrobenzo[b]naphtho [1,2-e][1,4]thiazepin-7-yl)ferrocene] | – | – | – | – | – | – | – | – | redox potential [4]: +0.042 V; IC50 (amoeba trophozoites): 12.6 µM
[Fe+2].c1cc[cH-]c1.c1ccc2c(c1)CCC1C2=Nc2ccccc2SC1[c-]1cccc1 (centres unmarked) [(5,6,6a,7-tetrahydrobenzo[b]naphtho [1,2-e][1,4]thiazepin-7-yl)ferrocene] | – | – | – | – | – | – | – | – | redox potential [4]: +0.005 V; IC50 (amoeba trophozoites): 7.5 µM
CC1COC(/C(=C\[c-]2cccc2)[c-]2cccc2)=N1.[Fe+2].[Fe+2].c1cc[cH-]c1.c1cc[cH-]c1 (centres unmarked) [Compound 3b, 2-(Z-1,2-diferrocenylvinyl)-4-methyl-4,5-dihydrooxazole] | −0.019 ^a V | 0.182 ^a V | −19 | 182 | 4.76 (0.1) | 100 ± 9 | 2 | 10 fold | –
CC(C)C1COC(/C(=C\[c-]2cccc2)[c-]2cccc2)=N1.[Fe+2].[Fe+2].c1cc[cH-]c1.c1cc[cH-]c1 (centres unmarked) [Compound 3c, 2-(Z-1,2-diferrocenylvinyl)-4-isopropyl-4,5-dihydrooxazole] | – | – | – | – | 5.48 (0.1) | 1890 | – | – | E(I) redox potential [5]: −22 mV; E(II) redox potential [5]: 167 mV; E(I) half-wave redox potential [5]: −0.022 V; E(II) half-wave redox potential [5]: 0.167 V
C(=C(/C1=NC(c2ccccc2)CO1)[c-]1cccc1)/[c-]1cccc1.[Fe+2].[Fe+2].c1cc[cH-]c1.c1cc[cH-]c1 (centres unmarked) [Compound 3d, 2-(Z-1,2-diferrocenylvinyl)-4-phenyl-4,5-dihydrooxazole] | −0.045 ^a V | 0.135 ^a V | −45 | 135 | 5.62 (0.2) | 23 ± 3 | 1.36 | more than 40 fold | –
C(=C(/C1=NC(Cc2ccccc2)CO1)[c-]1cccc1)/[c-]1cccc1.[Fe+2].[Fe+2].c1cc[cH-]c1.c1cc[cH-]c1 (centres unmarked) [Compound 3e, 2-(Z-1,2-diferrocenylvinyl)-4-benzyl-4,5-dihydrooxazole] | – | – | – | – | 6.1 (0.09) | 385 ± 11 | 2.58 | 2.5 fold | E(I) redox potential [5]: −65 mV; E(II) redox potential [5]: 124 mV; E(I) half-wave redox potential [5]: −0.065 V; E(II) half-wave redox potential [5]: 0.124 V
Cc1ncc([N+](=O)[O-])n1CCO [Metronidazole, reference compound] | – | – | – | – | – | – | – | – | IC50 ([3]; Entamoeba histolytica, E. histolytica HM1:IMSS trophozoites, viability curves at 24, 48 and 72 h, read-out: IC50): 7 ± 0.9 µM; IC50 ([3]; Entamoeba histolytica, logarithmic units of IC50 in µM, read-out: −log (1/IC50) (converted)): 6.92 µM
